Measurements from article PMC6268991, “Impact of Halogen Substituents on Interactions between 2-Phenyl-2,3-dihydroqulinazolin-4(1H)-one Derivatives and Human Serum Albumin” (Molecules, 2012).

Target: T1, human serum albumin (HSA) (Homo sapiens, UniProt P02768)
T1 construct: gene ALB
Assay: intrinsic fluorescence quenching, modified Stern-Volmer
Type: binding
Details: 298 K, pH 7.4, 0.1 M Tris, 0.1 M NaCl, 1 µM HSA, ex 280 / em 337 nm; site II (subdomain IIIA), no site marker
Text: intrinsic fluorescence quenching, modified Stern-Volmer on human serum albumin (HSA)

T1 sequence (P02768 25-609): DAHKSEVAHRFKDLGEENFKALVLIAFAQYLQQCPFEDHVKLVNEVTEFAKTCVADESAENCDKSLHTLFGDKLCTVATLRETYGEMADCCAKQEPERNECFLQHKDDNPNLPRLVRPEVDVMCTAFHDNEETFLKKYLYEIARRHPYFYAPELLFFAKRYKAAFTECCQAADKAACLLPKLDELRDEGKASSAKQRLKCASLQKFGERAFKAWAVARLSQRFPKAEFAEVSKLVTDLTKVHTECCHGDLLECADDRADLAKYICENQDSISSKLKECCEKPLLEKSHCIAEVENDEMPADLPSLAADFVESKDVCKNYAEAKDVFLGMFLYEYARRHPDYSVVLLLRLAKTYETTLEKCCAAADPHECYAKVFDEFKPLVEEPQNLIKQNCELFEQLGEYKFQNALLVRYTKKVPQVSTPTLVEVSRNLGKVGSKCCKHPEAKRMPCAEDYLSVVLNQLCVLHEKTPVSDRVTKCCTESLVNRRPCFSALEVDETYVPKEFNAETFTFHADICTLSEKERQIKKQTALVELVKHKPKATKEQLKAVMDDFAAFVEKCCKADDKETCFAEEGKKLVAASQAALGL

Row | Ka (×10^4 M^-1) | Structure (SMILES)
1 | 4.37 ×10^4 M^−1 | CC(C)(C)CC(=O)N1c2ccc(Cl)cc2C(=O)N(N=Cc2ccc(Br)cc2)C1c1ccc(Br)cc1 (centres unmarked) [3d, 3-(4-Bromobenzylideneamino)-6-chloro-1-(3,3-dimethylbutanoyl)-2-(4-bromophenyl)-2,3-dihydroquinazolin-4(1H)-one]
2 | 7.21 ×10^4 M^−1 | CC(C)(C)CC(=O)N1c2ccc(Cl)cc2C(=O)N(N=Cc2ccc(I)cc2)C1c1ccc(I)cc1 (centres unmarked) [3e, 3-(4-Iodobenzylideneamino)-6-chloro-1-(3,3-dimethylbutanoyl)-2-(4-iodophenyl)-2,3-dihydroquinazolin-4(1H)-one]

The next lines start with the compound.

Row | Structure (SMILES) | Ka (×10^4 M^-1)
3 | CC(C)(C)CC(=O)N1c2ccc(Cl)cc2C(=O)N(N=Cc2ccc(F)cc2)C1c1ccc(F)cc1 (centres unmarked) [3b, 3-(4-Fluorobenzylideneamino)-6-chloro-1-(3,3-dimethylbutanoyl)-2-(4-fluorophenyl)-2,3-dihydroquinazolin-4 (1H)-one] | 2.64 ×10^4 M^−1
4 | CC(C)(C)CC(=O)N1c2ccc(Cl)cc2C(=O)N(N=Cc2ccc(Cl)cc2)C1c1ccc(Cl)cc1 (centres unmarked) [3c, 3-(4-Chlorobenzylideneamino)-6-chloro-1-(3,3-dimethylbutanoyl)-2-(4-chlorophenyl)-2,3-dihydroquinazolin-4(1H)-one] | 3.44 ×10^4 M^−1
5 | CC(C)(C)CC(=O)N1c2ccc(Cl)cc2C(=O)N(N=Cc2ccccc2)C1c1ccccc1 (centres unmarked) [3a, 3-(Benzylideneamino)-6-chloro-1-(3,3-dimethylbutanoyl)-2-phenyl-2,3-dihydroquinazolin-4(1H)-one] | 2.16 ×10^4 M^−1
